Results taken from patent US20240238236A1, “COMPOSITION FOR REGULATING CARBOHYDRATE METABOLISM, AND METHOD FOR ASSESSING CARBOHYDRATE METABOLISM CONDITIONS OF SUBJECT” (KAGAMI INC., priority 2021, published 2024).

How the values were obtained:
Type in all cases: in vivo
[1] = tested on: db/db mice (type 2 diabetes model); test: casual blood glucose in db/db mice; details: 20 mM in drinking water, 5 to 18 weeks, vs control group
[2] = tested on: carbohydrate metabolism-modified mice (type 1 diabetes model); test: insulin tolerance testing (ITT); details: before and at 2 weeks after STZ, vs water control; for blood glucose level and insulin resistance in insulin tolerance testing (ITT): 20 mM in drinking water
Protocol: (§1) After removing the left kidney of C57BL/6(B6) mice (−2 weeks: −2 w), a group administered Risperidone aqueous solution as a DAO inhibitor in drinking water (n=3 to 7) and a group administered water as drinking water (n=9 to 11) as a control were administered streptozotocin (STZ) at 50 mg/kg (0) weeks) to create carbohydrate metabolism-modified model mice, and insulin tolerance testing (−1 weeks, 2 weeks), intra-peritoneal glucose tolerance testing (−1 weeks), casual blood glucose measurement (−1 weeks, 2 weeks, 6 weeks) and fasting blood glucose measurement (−1 weeks, 2 weeks) were conducted as appropriate.
(§2) After removing the left kidney of C57BL/6(B6) mice (−2 weeks: −2 w), a group administered an aqueous solution of 20 mM D-alanine (n=5 to 8), 80 mM D-alanine (n=3 to 4), 20 mM D-serine (n=6 to 7) or 80 mM D-serine (n=4) as drinking water, and a group administered water as drinking water as a control (n=8) were administered streptozotocin (STZ) at 50 mg/kg (0 weeks) to create carbohydrate metabolism-modified model mice, and insulin tolerance testing (−1 weeks, 2 weeks), casual blood glucose measurement (0 weeks to 18 weeks), fasting blood glucose measurement (0 weeks to 16 weeks) and systolic/diastolic blood pressure measurement (−1 weeks to 18 weeks) were conducted as appropriate.

[3] = tested on: carbohydrate metabolism-modified mice (type 1 diabetes model); test: fasting blood glucose measurement; details: vs water control
Protocol: (§3) After removing the left kidney of C57BL/6(B6) mice (−2 weeks: −2 w), a D-amino acid-eliminated diet (D-amino acid-free diet, D-fd) was provided, and groups administered aqueous solution of 20 mM D-alanine (n=5), 20 mM D-serine (n=5), 20 mM D-proline (n=5), 20 mM D-leucine (n=5) or water (n=6 to 14) in drinking water, and a group given normal diet and water as a control (n=5), were administered streptozotocin (STZ) at 50 mg/kg (0 weeks) to create carbohydrate metabolism-modified model mice, and blood insulin measurement (−1 weeks, 3 weeks), casual blood glucose measurement (−1 weeks, 2 weeks), fasting blood glucose measurement (−1 weeks, 3 weeks) and measurement of insulin and glucagon in pancreatic islets of Langerhans by antibody staining, were conducted as appropriate.

[4] = tested on: carbohydrate metabolism-modified mice (type 1 diabetes model); test: systolic/diastolic blood pressure measurement; details: 80 mM in drinking water; 10 weeks after STZ; vs B6 group
Protocol: as §2

[5] = tested on: carbohydrate metabolism-modified mice (type 1 diabetes model); test: casual blood glucose measurement; details: for increase in casual blood glucose level: 20 mM in drinking water on D-amino acid-free diet, after STZ (2 weeks); for casual blood glucose level: vs water control
Protocol: as §3

[6] = tested on: carbohydrate metabolism-modified mice (type 1 diabetes model); test: death during D-amino acid administration in drinking water; details: 80 mM in drinking water (n=4); within 18 weeks
Protocol: as §2

[7] = tested on: carbohydrate metabolism-modified mice (type 1 diabetes model); test: intra-peritoneal glucose tolerance testing (IPGTT); details: Risperidone in drinking water; B6 mice, -1 weeks; vs water control
Protocol: as §1

[8] = 20 mM or 80 mM in drinking water, dose-dependent, after STZ (0 to 16 weeks)
[9] = 20 mM or 80 mM in drinking water, dose-dependent, after STZ (0 to 18 weeks)

Compound	casual blood glucose level [1]	blood glucose level and insulin resistance in insulin tolerance testing (ITT) [2]	fasting blood glucose level [3, 8]	diastolic pressure [4]	systolic pressure [4]	increase in casual blood glucose level [5]	casual blood glucose level [5, 9]	death of animals (toxicity) [6]	blood glucose level in intra-peritoneal glucose tolerance testing (IPGTT) [7]	blood glucose level in insulin tolerance testing (ITT) ([2]; Risperidone aqueous solution in drinking water, left kidney removed, STZ 50 mg/kg B6 mice)	fasting blood glucose level ([3]; Risperidone in drinking water, after STZ (2 weeks))	casual blood glucose level ([5]; Risperidone in drinking water, after STZ (2, 6 weeks))
C[C@@H](N)C(=O)O [D-alanine]	lower levels	lower blood glucose levels and lower insulin resistance compared to the control group	remained at a low levels	lowered	lowered	suppressed	remained at a low levels	–	–	–	–	–
CC(C)C[C@@H](N)C(=O)O [D-leucine]	–	–	–	–	–	suppressed	–	–	–	–	–	–
N[C@H](CO)C(=O)O [D-serine]	–	lower blood glucose levels and lower insulin resistance compared to the control group	remained at a low levels	–	–	suppressed	remained at a low levels	one individual died within 18 weeks	–	–	–	–
Cc1nc2n(c(=O)c1CCN1CCC(c3noc4cc(F)ccc34)CC1)CCCC2 [Risperidone, reference compound]	–	–	–	–	–	–	–	–	lower values for blood glucose level than the control group	lower blood glucose levels compared to the control group	remained at low levels in the Risperidone group compared to the control	remained at low levels in the Risperidone group compared to the control group
